Values of other authors as cited in patent US20260206768A1, “COMBINATION OF VARIOUS NITROGEN FIXING BACTERIA WITH VARIOUS BIOLOGICAL PRODUCTS TO ACHIEVE SYNERGISTIC EFFECTS” (Pivot Bio, Inc., priority 2022, published 2026).
Peptide text beside a SMILES is read from it.

Settings: for Useful pH range: buffering range

pKa at 25° C. | Useful pH range | Compound
6.78 | 6.1-7.5 | NC(=O)CNCCS(=O)(=O)O [ACES]
6.59 | 6.0-7.2 | NC(=O)CN(CC(=O)O)CC(=O)O [ADA]
8.8 | 7.8-9.7 | CC(N)(CO)CO [AMPD]
9 | 8.3-9.7 | CC(C)(CO)NCC(O)CS(=O)(=O)O (centres unmarked) [AMPSO]
9.7 | 9.0-10.5 | CC(C)(N)CO [AMP]
 | 3.8-5.8 | CC(=O)O [Acetic acid, Ethanoic acid]
7.09 | 6.4-7.8 | O=S(=O)(O)CCN(CCO)CCO [BES]
 | 6.3-9.5 | OCC(CO)(CO)NCCCNC(CO)(CO)CO [Bis-Tris Propane]
 | 8.25-10.25 | OB(O)O [Boric acid]
10.7 | 10.0-11.4 | O=S(=O)(O)CCCCNC1CCCCC1 [CABS]
 | 8.9-10.3 | O=S(=O)(O)CC(O)CNC1CCCCC1 (centres unmarked) [CAPSO]
 | 8.3-10.3 | O=S(=O)(O)CCNC1CCCCC1 [CHES, N-Cyclohexyl-2-aminoethanesulfonic acid]
 | 2.1-7.4 | O=C(O)CC(O)(CC(=O)O)C(=O)O [Citric acid, 2-Hydroxypropane-1,2,3-tricarboxylic acid]
7.6 | 7.0-8.2 | O=S(=O)(O)CC(O)CN(CCO)CCO (centres unmarked) [DIPSO]
 | 7.5-8.9 | NCC(=O)NCC(=O)O [Gly-Gly] (H-Gly-Gly-OH)
8.3 | 7.6-9.0 | O=S(=O)(O)CCCCN1CCN(CCO)CC1 [HEPBS]
7.6 | 6.9-8.3 | O=S(=O)(O)CCCCN1CCOCC1 [MOBS]
6.76 | 6.1-7.5 | O=S(=O)(O)CCN1CCN(CCS(=O)(=O)O)CC1 [PIPES, piperazine-N,N′-bis(2-ethanesulfonic acid)]
7.8 | 7.2-8.5 | O=S(=O)(O)CC(O)CN1CCN(CC(O)CS(=O)(=O)O)CC1 (centres unmarked) [POPSO]
8.9 | 8.2-9.6 | O=S(=O)(O)CCCCNC(CO)(CO)CO [TABS]
 | 7.7-9.1 | O=S(=O)(O)CCCNC(CO)(CO)CO [TAPS, [tris(hydroxymethyl)methylamino]propanesulfonic acid]
 | 7.0-8.2 | O=S(=O)(O)CC(O)CNC(CO)(CO)CO (centres unmarked) [TAPSO, 3-[N-tris(hydroxymethyl)methylamino]-2-hydroxypropanesulfonic acid]
 | 6.8-8.2 | O=S(=O)(O)CCNC(CO)(CO)CO [TES, 2-[[1,3-dihydroxy-2-(hydroxymethyl)propan-2-yl]amino]ethanesulfonic acid]
 | 7.4-8.8 | O=C(O)CNC(CO)(CO)CO [Tricine, N-[tris(hydroxymethyl)methyl]glycine]

Compound | pKa at 25° C. | Useful pH range
O=S(=O)(O)CCCNC1CCCCC1 [CAPS] | 10.4 | 9.7-11.1
O=S(=O)(O)CCCN1CCN(CCO)CC1 [EPPS] | 8 | 7.3-8.7
O=P([O-])([O-])O.[K+].[K+] [K2HPO4, dipotassium phosphate] |  | 8.7-9.4
O=P([O-])([O-])[O-].[K+].[K+].[K+] [K3PO4] |  | 11.5-12.3
OCCN(CCO)CCO [TEA] |  | 7.3-8.3
